The results in this text go back to patent US9750788B2 (priority 2013, dated 2017).

Values after ≈ are worked out from the molar mass of the structure shown. Square brackets hold non-standard residues; d marks the D form. Peptide text beside a SMILES is read from it. Aib = CC(C)(N)C(=O)O

The format of data set [1] is physicochemical. The following applies: buffer, 168 h. An excerpt: The chemical stability is expressed as “% remaining peptide”.
The next data set in a line: physchem. The format is physicochemical.
The next data set in a line: in vivo. Particulars: mouse, sc, 1 mg/kg.
In data set [2] the test system is blood glucose of diabetic db/db mice. The experiment in a line: Glucose lowering in female diabetic dbdb-mice. Format: in vivo. The following applies: 100 μg/kg s.c. The procedure: Female diabetic dbdb-mice (BKS.Cg− +Leprdb/+Leprdb/OlaHsd) 10 weeks of age at study start were used. Mice were habituated to feeding and housing conditions for at least 2 weeks. 7 days prior to study start, HbA1c were determined to allocate mice to groups, aiming to spread low, medium and high HbA1c-values and in consequence the group-means (n=8), as equally as possible. On the day of study, food was removed, directly before sampling for baseline glucose assessment (t=0 min) Immediately afterwards, compounds or vehicle (phosphor buffered saline, PBS) were administered subcutaneously, 100 μg/kg, 10 ml/kg. Afterwards, blood samples were drawn by tail tip incision at 15, 30, 60, 90, 120, 150, 180, 240, 360, 480 min and 24 h. Food was re-offered after the 480 min-sampling. Data were analysed by 2-W-ANOVA on repeated measurements, followed by Dunnett's test as post-hoc assessment, level of significance p<0.05.

Procedure for in vivo: Mice were dosed 1 mg/kg subcutaneously (s.c.). The mice were sacrificed and blood samples were collected after 0.25, 0.5, 1, 2, 4, 8, 16 and 24 hours post application. Plasma samples were analyzed after protein precipitation via liquid chromatography mass spectrometry (LC/MS). PK parameters and half-life were calculated using WinonLin Version 5.2.1 (non-compartment model).

As for `CC[C@H](C)[C@H](NC(=O)[C@H](Cc1ccccc1)NC(=O)[C@H](CC(C)C)NC(=O)[C@H](CCCNC(=N)N)NC(=O)[C@@H](NC(=O)[C@H](C)NC(=O)[C@H](CCC(=O)O)NC(=O)[C@H](CCC(=O)O)NC(=O)[C@H](CCC(=O)O)NC(=O)[C@H](CC(C)C)NC(=O)[C@H](CC(C)C)NC(=O)[C@H](CCCCN)NC(=O)[C@H](CO)NC(=O)[C@H](CC(C)C)NC(=O)[C@H](CC(=O)O)NC(=O)[C@H](CO)NC(=O)[C@@H](NC(=O)[C@H](Cc1ccccc1)NC(=O)[C@@H](NC(=O)CNC(=O)[C@H](CCC(=O)O)NC(=O)C(C)(C)NC(=O)[C@@H](N)Cc1ccc(O)cc1)[C@@H](C)O)[C@@H](C)O)C(C)C)C(=O)N[C@@H](CCC(=O)O)C(=O)N[C@@H](Cc1c[nH]c2ccccc12)C(=O)N[C@@H](CC(C)C)C(=O)N[C@@H](CCCCN)C(=O)N[C@@H](C)C(=O)NCC(=O)NCC(=O)N1CCC[C@H]1C(=O)N[C@@H](CO)C(=O)N[C@@H](CO)C(=O)NCC(=O)N[C@@H](C)C(=O)N1CCC[C@H]1C(=O)N1CCC[C@H]1C(=O)N1CCC[C@H]1C(=O)N[C@@H](CO)C(N)=O` [SEQ ID NO: 10, Y-Aib-EGTFTSDLSKLLEEEAVRLFIEWLKAGGPSSGAPPPS-NH2] (H-Y[Aib]EGTFTSDLSKLLEEEAVRLFIEWLKAGGPSSGAPPPS-NH2), in data set [1], the “Stability (pH 7.4), % remaining peptide” value worked out at 100%. The same compound showed a solubility at 2 h in “physchem” (pH 7.4) of 990 µg/mL (≈ 238 µM).
In “in vivo”, `CC[C@H](C)[C@H](NC(=O)[C@H](Cc1ccccc1)NC(=O)[C@H](CC(C)C)NC(=O)[C@H](CCCNC(=N)N)NC(=O)[C@@H](NC(=O)[C@H](C)NC(=O)[C@H](CCC(=O)O)NC(=O)[C@H](CCCCN)NC(=O)[C@H](CCC(=O)O)NC(=O)[C@H](CC(C)C)NC(=O)[C@H](CC(C)C)NC(=O)[C@H](CCCCN)NC(=O)[C@H](CO)NC(=O)[C@H](CC(C)C)NC(=O)[C@H](CC(=O)O)NC(=O)[C@H](CO)NC(=O)[C@@H](NC(=O)[C@H](Cc1ccccc1)NC(=O)[C@@H](NC(=O)CNC(=O)[C@H](CCC(=O)O)NC(=O)C(C)(C)NC(=O)[C@@H](N)Cc1ccc(O)cc1)[C@@H](C)O)[C@@H](C)O)C(C)C)C(=O)N[C@@H](CCC(=O)O)C(=O)N[C@@H](Cc1c[nH]c2ccccc12)C(=O)N[C@@H](CC(C)C)C(=O)N[C@@H](CCCCN)C(=O)N[C@@H](C)C(=O)NCC(=O)NCC(=O)N1CCC[C@H]1C(=O)N[C@@H](CO)C(=O)N[C@@H](CO)C(=O)NCC(=O)N[C@@H](C)C(=O)N1CCC[C@H]1C(=O)N1CCC[C@H]1C(=O)N1CCC[C@H]1C(=O)N[C@@H](CO)C(N)=O` [SEQ ID NO: 8, Y-Aib-EGTFTSDLSKLLEKEAVRLFIEWLKAGGPSSGAPPPS-NH2] (H-Y[Aib]EGTFTSDLSKLLEKEAVRLFIEWLKAGGPSSGAPPPS-NH2) gave a Cmax of 2980 ng/mL and a half-life of 1.9 h. Moreover, the “Stability (pH 4.5), % remaining peptide” value in data set [1] (pH 4.5) is listed as 100%. In data set [1], the “Stability (pH 7.4), % remaining peptide” value was 100%. Moreover, the “maximal effect, glucose reduction” value in data set [2] (at t=30 min) is around 13 mmol/L. In addition, the “reduction of glucose compared to vehicle control” value in data set [2] (from t=30 min to 24 h, p<0.05) is reported as “statistical significant reduction of glucose”. Further, in the data set “physchem” (pH 4.5), the concentration in solution (solubility at 2 h) was 320 µg/mL (≈ 76.9 µM). Moreover, the solubility at 2 h in “physchem” (pH 7.4) is 270 µg/mL (≈ 64.8 µM).

Usually solubility stands for the dissolved amount per volume that the medium holds. Lower therefore signals a poorly soluble substance. For orientation: Cmax means the maximum level reached in the sampled fluid or tissue. As a reminder, the half-life is how long it takes for the measured level to halve.
